Structures are written as SMILES.

One assay deals with Adenosine receptor A2a (Homo sapiens, UniProt P29274).
For assay [1], the target named is T1, Alpha-2A adrenergic receptor (Homo sapiens, UniProt P08913).
T1 sequence (P08913 whole entry): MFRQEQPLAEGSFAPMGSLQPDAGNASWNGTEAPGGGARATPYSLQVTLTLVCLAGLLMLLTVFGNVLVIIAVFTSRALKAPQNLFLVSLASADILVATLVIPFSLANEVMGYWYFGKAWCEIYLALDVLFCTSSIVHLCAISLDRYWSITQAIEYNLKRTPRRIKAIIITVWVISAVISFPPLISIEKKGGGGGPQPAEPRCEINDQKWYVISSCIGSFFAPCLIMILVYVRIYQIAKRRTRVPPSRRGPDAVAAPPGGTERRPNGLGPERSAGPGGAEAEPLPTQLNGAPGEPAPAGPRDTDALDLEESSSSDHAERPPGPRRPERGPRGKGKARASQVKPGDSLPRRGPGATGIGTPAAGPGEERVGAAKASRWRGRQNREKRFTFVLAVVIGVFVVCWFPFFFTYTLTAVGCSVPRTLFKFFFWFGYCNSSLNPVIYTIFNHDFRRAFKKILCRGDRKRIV
Format: functional, cell-based.

Assay [2] deals with T2, Alpha-2C adrenergic receptor (Homo sapiens, UniProt P18825).
T2 sequence (P18825 whole entry): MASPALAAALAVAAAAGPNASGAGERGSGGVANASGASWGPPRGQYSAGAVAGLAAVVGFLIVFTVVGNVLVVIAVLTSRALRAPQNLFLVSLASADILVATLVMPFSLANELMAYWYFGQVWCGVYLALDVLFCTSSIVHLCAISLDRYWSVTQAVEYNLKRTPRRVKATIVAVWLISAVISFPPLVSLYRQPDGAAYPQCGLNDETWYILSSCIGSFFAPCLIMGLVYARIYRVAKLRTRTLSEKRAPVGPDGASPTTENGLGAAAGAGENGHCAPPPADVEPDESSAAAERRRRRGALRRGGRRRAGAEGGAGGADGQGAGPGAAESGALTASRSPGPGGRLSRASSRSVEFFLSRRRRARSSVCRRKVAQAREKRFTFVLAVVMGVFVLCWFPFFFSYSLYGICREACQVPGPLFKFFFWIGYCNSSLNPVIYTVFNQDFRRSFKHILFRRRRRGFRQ
Format: functional.

For the next assay, the target named is T3, B2 bradykinin receptor (Homo sapiens, UniProt P30411).
T3 sequence (P30411 whole entry): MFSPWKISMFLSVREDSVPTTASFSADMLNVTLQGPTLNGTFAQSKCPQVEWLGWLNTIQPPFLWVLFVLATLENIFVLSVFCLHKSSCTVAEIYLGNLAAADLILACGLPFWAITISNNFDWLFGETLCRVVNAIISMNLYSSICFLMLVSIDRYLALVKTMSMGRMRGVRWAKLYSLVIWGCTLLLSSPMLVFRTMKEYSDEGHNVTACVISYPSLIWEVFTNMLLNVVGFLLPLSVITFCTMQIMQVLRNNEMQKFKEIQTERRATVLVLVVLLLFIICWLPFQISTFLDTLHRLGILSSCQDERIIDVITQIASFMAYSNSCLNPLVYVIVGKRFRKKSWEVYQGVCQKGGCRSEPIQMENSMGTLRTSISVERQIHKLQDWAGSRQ

Assay [3] addresses 5-hydroxytryptamine receptor 2B (Homo sapiens, UniProt P41595). The class given is functional, cell-based.
The target in assay [4] is 3',5'-cyclic-AMP phosphodiesterase 4D (Homo sapiens, UniProt Q08499). Format: functional.
A further assay concerns the target T4, Thromboxane A2 receptor (Homo sapiens, UniProt P21731).
T4 sequence (P21731 whole entry): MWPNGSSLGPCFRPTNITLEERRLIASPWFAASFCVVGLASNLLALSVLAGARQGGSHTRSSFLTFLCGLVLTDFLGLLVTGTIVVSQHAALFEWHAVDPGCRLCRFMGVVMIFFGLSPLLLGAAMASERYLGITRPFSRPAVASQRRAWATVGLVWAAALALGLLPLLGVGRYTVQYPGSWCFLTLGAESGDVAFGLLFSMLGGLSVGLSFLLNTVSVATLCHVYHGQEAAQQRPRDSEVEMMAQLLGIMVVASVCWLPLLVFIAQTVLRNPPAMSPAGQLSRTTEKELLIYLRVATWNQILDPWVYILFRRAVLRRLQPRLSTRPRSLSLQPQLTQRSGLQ

The target of assay [5] is cGMP-inhibited 3',5'-cyclic phosphodiesterase 3A (Homo sapiens, UniProt Q14432). The class given is functional.
Also: assay procedure not described here.

Chain of 5-hydroxytryptamine receptor 2B (P41595 whole entry): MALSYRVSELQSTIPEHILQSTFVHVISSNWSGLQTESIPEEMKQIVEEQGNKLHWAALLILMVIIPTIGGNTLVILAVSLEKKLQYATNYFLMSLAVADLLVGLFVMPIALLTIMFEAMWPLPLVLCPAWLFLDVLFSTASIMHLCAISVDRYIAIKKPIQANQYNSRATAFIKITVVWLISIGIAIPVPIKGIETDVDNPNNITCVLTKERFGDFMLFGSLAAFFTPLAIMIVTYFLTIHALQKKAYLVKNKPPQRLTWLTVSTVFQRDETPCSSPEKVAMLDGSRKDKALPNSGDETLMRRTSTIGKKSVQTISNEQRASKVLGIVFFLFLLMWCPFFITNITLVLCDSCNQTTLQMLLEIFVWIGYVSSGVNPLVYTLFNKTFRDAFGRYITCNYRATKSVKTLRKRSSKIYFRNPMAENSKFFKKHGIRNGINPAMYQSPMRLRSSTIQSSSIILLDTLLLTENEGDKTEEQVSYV
Chain of Adenosine receptor A2a (P29274 whole entry): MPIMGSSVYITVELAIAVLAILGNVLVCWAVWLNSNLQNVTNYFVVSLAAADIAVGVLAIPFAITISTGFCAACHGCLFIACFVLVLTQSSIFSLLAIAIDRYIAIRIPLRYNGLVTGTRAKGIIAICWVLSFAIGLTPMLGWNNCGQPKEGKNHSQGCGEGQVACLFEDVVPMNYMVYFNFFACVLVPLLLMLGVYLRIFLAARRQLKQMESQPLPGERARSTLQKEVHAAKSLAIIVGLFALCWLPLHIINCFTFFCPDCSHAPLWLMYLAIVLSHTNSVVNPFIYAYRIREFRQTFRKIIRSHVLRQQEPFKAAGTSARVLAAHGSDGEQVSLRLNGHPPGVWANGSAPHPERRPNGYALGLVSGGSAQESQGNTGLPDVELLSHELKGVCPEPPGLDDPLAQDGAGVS
Chain of 3',5'-cyclic-AMP phosphodiesterase 4D (Q08499 whole entry): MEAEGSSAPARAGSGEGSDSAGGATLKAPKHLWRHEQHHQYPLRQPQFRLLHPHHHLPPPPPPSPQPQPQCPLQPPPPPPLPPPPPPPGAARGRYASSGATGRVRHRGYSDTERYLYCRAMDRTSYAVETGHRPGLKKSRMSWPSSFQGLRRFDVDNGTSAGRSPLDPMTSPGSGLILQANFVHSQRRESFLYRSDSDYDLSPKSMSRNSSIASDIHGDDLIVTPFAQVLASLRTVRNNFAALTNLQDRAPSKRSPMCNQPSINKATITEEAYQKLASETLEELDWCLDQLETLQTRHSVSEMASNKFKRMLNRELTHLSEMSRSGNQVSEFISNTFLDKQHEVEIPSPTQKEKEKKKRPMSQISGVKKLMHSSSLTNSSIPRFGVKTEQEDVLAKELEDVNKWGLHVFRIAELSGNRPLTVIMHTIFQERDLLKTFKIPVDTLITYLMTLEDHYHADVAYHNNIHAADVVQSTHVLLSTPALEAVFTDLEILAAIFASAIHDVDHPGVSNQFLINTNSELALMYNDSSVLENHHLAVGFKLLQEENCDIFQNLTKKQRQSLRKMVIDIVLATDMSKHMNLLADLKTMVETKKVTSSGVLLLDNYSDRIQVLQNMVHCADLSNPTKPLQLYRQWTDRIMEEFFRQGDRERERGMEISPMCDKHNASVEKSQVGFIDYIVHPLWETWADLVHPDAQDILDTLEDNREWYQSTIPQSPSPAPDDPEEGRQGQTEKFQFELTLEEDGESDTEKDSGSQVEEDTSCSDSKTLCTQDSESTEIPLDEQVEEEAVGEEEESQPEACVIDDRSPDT
Chain of cGMP-inhibited 3',5'-cyclic phosphodiesterase 3A (Q14432 whole entry): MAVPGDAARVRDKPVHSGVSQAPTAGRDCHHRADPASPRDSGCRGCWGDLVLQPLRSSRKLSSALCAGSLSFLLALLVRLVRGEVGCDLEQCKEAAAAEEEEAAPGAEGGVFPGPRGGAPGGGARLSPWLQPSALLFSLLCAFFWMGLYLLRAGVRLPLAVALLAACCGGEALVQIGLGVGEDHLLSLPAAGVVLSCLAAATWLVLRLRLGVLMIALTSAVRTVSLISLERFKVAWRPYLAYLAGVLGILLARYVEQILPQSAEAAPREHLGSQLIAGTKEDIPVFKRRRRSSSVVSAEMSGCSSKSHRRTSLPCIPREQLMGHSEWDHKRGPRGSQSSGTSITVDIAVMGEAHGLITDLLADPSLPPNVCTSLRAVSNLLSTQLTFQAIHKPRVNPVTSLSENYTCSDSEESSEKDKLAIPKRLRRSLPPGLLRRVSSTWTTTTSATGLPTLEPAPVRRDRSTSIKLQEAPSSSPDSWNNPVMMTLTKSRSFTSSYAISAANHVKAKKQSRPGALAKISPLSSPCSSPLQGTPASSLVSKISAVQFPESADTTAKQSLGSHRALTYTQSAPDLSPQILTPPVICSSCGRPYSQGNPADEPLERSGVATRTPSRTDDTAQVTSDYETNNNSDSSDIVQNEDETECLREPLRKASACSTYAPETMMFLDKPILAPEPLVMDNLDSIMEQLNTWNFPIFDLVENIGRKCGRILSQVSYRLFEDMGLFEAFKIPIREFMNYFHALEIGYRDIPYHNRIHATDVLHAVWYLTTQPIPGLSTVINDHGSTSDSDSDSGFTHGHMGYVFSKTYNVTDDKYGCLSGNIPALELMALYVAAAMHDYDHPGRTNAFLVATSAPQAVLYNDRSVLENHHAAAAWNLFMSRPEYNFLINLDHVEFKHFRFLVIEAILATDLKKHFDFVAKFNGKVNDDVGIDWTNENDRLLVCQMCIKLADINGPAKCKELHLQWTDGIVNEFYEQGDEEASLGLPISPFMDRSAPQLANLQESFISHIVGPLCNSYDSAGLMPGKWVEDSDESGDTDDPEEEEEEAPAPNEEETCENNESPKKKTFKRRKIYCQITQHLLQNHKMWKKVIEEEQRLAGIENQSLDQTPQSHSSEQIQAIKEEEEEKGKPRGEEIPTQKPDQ

Broadly, the AC50 is the midpoint of the concentration-response curve, whichever way the signal moves. The low end stands for activity at low concentration, the high end for activity only at high concentration. Take `C[C@]12CC[C@H](O)CC1=CC[C@@H]1[C@@H]2CC[C@]2(C)C(c3cccnc3)=CC[C@@H]12` [ABIRATERONE]: the AC50 was > 30 µM on Adenosine receptor A2a; > 10 µM in assay [1]; > 10 µM in assay [2]; > 30 µM at B2 bradykinin receptor; > 10 µM in assay [3]; > 30 µM in assay [4]. The AC50 (at Thromboxane A2 receptor; in assay [5]) was > 30 µM throughout.
As for `O=C(Nc1nc(-c2cc(Cl)cs2)c(N2CCN(C3CCCCC3)CC2)s1)c1cnc(N2CCC(C(=O)O)CC2)c(Cl)c1` [AVATROMBOPAG], the AC50 (on Adenosine receptor A2a; in assay [2]; in assay [4]; on Thromboxane A2 receptor; in assay [5]) was > 10 µM in each case.
`CN(C)C(=O)Oc1cc(OC(=O)N(C)C)cc(C(O)CNC(C)(C)C)c1` (stereo not drawn) [BAMBUTEROL]: the half-maximal activity concentration (AC50) on Adenosine receptor A2a, on B2 bradykinin receptor and on Thromboxane A2 receptor was > 30 µM in each case.
With `C[C@H]1C[C@H]2[C@@H]3CCC4=CC(=O)C=C[C@]4(C)[C@@]3(Cl)[C@@H](O)C[C@]2(C)[C@@]1(O)C(=O)CO` [BECLOMETHASONE], the AC50 was > 30 µM at Adenosine receptor A2a; > 10 µM in assay [2]; > 30 µM on B2 bradykinin receptor; > 30 µM in assay [4]; > 30 µM on Thromboxane A2 receptor; > 30 µM in assay [5].
On to `CO[C@@]1(NC(=O)CSCC#N)C(=O)N2C(C(=O)O)=C(CSc3nnnn3C)CS[C@@H]21` [CEFMETAZOLE], for which the AC50 in assay [1], in assay [2], in assay [3], in assay [4] and in assay [5] was > 30 µM in each case.
Consider `NS(=O)(=O)c1cc(C2(O)NC(=O)c3ccccc32)ccc1Cl` (stereo not drawn) [CHLORTHALIDONE], for which the AC50 on Adenosine receptor A2a is > 10 µM; in assay [1] it was > 10 µM; in assay [2] it was > 10 µM; at B2 bradykinin receptor, > 10 µM; in assay [3] it was > 10 µM; in assay [4], > 30 µM. Also, the AC50 was > 10 µM on Thromboxane A2 receptor and > 30 µM in assay [5].
On to `Oc1c(I)cc(Cl)c2cccnc12` [CLIOQUINOL], for which the AC50 in assay [1], in assay [2], in assay [3] and in assay [5] was > 30 µM each time.
For `C[C@@H]1CCC[C@H](C)N1NC(=O)c1ccc(Cl)c(S(N)(=O)=O)c1` [CLOPAMIDE], the AC50 (on Adenosine receptor A2a; in assay [1]; in assay [2]; at B2 bradykinin receptor; in assay [3]; in assay [4]) was > 30 µM throughout. For the same compound, the AC50 (at Thromboxane A2 receptor; in assay [5]) was > 30 µM in each case.
As to `COc1ccc2c(c1)[C@]13CCCC[C@@H]1[C@H](C2)N(C)CC3` [DEXTROMETHORPHAN], the AC50 was > 30 µM on Adenosine receptor A2a; > 10 µM in assay [1]; 11 µM in assay [2]; > 30 µM at B2 bradykinin receptor; > 10 µM in assay [3]; > 30 µM in assay [4]. Besides, the AC50 (at Thromboxane A2 receptor; in assay [5]) was > 30 µM in each case.
Regarding `O=c1oc2ccccc2c(O)c1Cc1c(O)c2ccccc2oc1=O` [DICUMAROL], the AC50 on Adenosine receptor A2a was > 10 µM; in assay [1], > 10 µM; in assay [2] it was > 10 µM; on B2 bradykinin receptor, > 10 µM; in assay [3], > 10 µM; in assay [4], 6.3 µM. Moreover, the AC50 (at Thromboxane A2 receptor; in assay [5]) was > 10 µM each time.
As for `O=C(O)CSCC(=O)NC1CCSC1=O` (stereo not drawn) [ERDOSTEINE], the concentration at half-maximal activity (AC50) (on Adenosine receptor A2a; in assay [1]; in assay [2]; on B2 bradykinin receptor; in assay [3]; in assay [4]) was > 30 µM throughout. Moreover, the AC50 (at Thromboxane A2 receptor; in assay [5]) was > 30 µM throughout.
For `COc1cccc(N(C)C(=S)Oc2ccc3c(c2)CCCC3)n1` [LIRANAFTATE], the AC50 (on Adenosine receptor A2a; in assay [1]; in assay [2]; on B2 bradykinin receptor; in assay [3]; in assay [4]) was > 30 µM each time. For the same compound, the AC50 (on Thromboxane A2 receptor; in assay [5]) was > 30 µM each time.
Regarding `C#C[C@]1(O)CC[C@H]2[C@@H]3CCc4cc(OC)ccc4[C@H]3CC[C@@]21C` [MESTRANOL], the half-maximal activity concentration (AC50) on Adenosine receptor A2a was > 30 µM; in assay [1], > 10 µM; in assay [2] it was > 30 µM; on B2 bradykinin receptor, > 10 µM; in assay [3] it was > 10 µM; in assay [4] it was > 30 µM. In addition, the results for the AC50 (at Thromboxane A2 receptor; in assay [5]) were > 10 µM and > 30 µM, respectively.
For the compound `N=C(N)c1ccc2cc(OC(=O)c3ccc(N=C(N)N)cc3)ccc2c1` [NAFAMOSTAT], the AC50 was > 30 µM at Adenosine receptor A2a; > 30 µM in assay [1]; 3.2 µM in assay [2]; > 30 µM on B2 bradykinin receptor; > 30 µM in assay [3]; > 30 µM in assay [4]. The AC50 (at Thromboxane A2 receptor; in assay [5]) was > 30 µM each time.
`O=C(O)c1cc(O)c2c3nc4ccccc4oc-3cc(=O)c2n1` [PIRENOXINE]: the AC50 was > 30 µM at Adenosine receptor A2a; > 30 µM in assay [1]; 2.7 µM in assay [2]; > 30 µM at B2 bradykinin receptor; > 30 µM in assay [3]; > 30 µM in assay [4]. The AC50 (on Thromboxane A2 receptor; in assay [5]) was > 30 µM throughout.
As to `NS(=O)(=O)c1cc(C(=O)O)cc(N2CCCC2)c1Oc1ccccc1` [PIRETANIDE], the AC50 (at Adenosine receptor A2a; in assay [1]; in assay [2]; at B2 bradykinin receptor; in assay [3]; in assay [4]) was > 30 µM each time. Moreover, the AC50 (at Thromboxane A2 receptor; in assay [5]) was > 30 µM throughout.
As for `CNCCCC1c2ccccc2C=Cc2ccccc21` [PROTRIPTYLINE], the AC50 on Adenosine receptor A2a was > 10 µM; at B2 bradykinin receptor it was > 10 µM; in assay [3] it was > 10 µM; in assay [4], > 30 µM; on Thromboxane A2 receptor, > 10 µM; in assay [5], > 30 µM.
Regarding `CC(C)=CCOc1ccc(/C=C/C(=O)c2ccc(OCC=C(C)C)cc2OCC(=O)O)cc1` [SOFALCONE], the AC50 on Adenosine receptor A2a is > 30 µM; in assay [1] it was > 30 µM; in assay [2] it was > 30 µM; on B2 bradykinin receptor it was > 3 µM; in assay [3] it was > 30 µM; in assay [4] it was > 30 µM. For the same compound, the AC50 is 13 µM on Thromboxane A2 receptor and > 30 µM in assay [5].
Turning to `CN(C)c1cc(NC(=O)CNC(C)(C)C)c(O)c2c1C[C@H]1C[C@H]3[C@H](N(C)C)C(O)=C(C(N)=O)C(=O)[C@@]3(O)C(O)=C1C2=O` [TIGECYCLINE], the concentration at half-maximal activity (AC50) (at Adenosine receptor A2a; in assay [1]; in assay [2]; at B2 bradykinin receptor; in assay [3]; in assay [4]) was > 30 µM throughout. Further, the half-maximal activity concentration (AC50) (on Thromboxane A2 receptor; in assay [5]) was > 30 µM each time.

For the origin of these results see ChEMBL document CHEMBL5291721, “A preclinical secondary pharmacology resource illuminates target-adverse drug reaction associations of marketed drugs” (Nat Commun, 2023).
